Patent publication US20260130951A1, “GLYCYRRHIZIN-GLYCOL CHITOSAN CONJUGATE-COATED IRON OXIDE NANOPARTICLES AND USE THEREOF” (Industry-University Cooperation Foundation Hanyang …, priority 2018, published 2026)

Columns and labels:
[1] = about 5 mg/kg intravenously injected; cited from earlier work
[2] = Liver lobe distribution after hepatic portal vein injection of methylene blue solution; format: in vivo, balb/c mice; conditions: about 24 hours
Procedure: After zoletil and rumpun were injected into the abdominal cavity of balb/c mice at a ratio of 9:1 to anesthetize them, a methylene blue solution was injected by hepatic portal vein […]. After waiting for about 24 hours for tissue fixation of the methylene blue solution, all liver lobes were isolated by sacrificing the mice. The isolated liver lobes were fixed with a 10% formalin solution, made into a paraffin block, and cut into a thickness of 5 μm to prepare a tissue section slide. Thereafter, paraffin was removed from the tissue section slide, the slide was rehydrated, and then the tissue section was stained with a Harris hematoxylin solution and an eosin solution, and observed under an optical microscope.

SMILES	time glycyrrhizin remains in the body [1] [min]	distribution of methylene blue solution among liver lobes (image J) [2]
CC1(C)[C@@H](O[C@H]2O[C@H](C(=O)O)[C@@H](O)[C@H](O)[C@H]2O[C@@H]2O[C@H](C(=O)O)[C@@H](O)[C@H](O)[C@H]2O)CC[C@]2(C)[C@H]3C(=O)C=C4[C@@H]5C[C@@](C)(C(=O)O)CC[C@]5(C)CC[C@@]4(C)[C@]3(C)CC[C@@H]12 [glycyrrhizin]	≤ 15	
CN(C)c1ccc2nc3ccc(=[N+](C)C)cc-3sc2c1 [methylene blue solution, methylene blue]		present in the largest amount in Mediate 1
